# In ChEMBL document CHEMBL1126096, “Carbohydrate materials bearing neuraminidase-resistant C-glycosides of sialic acid strongly inhibit the in vitro infectivity of influenza virus” (J Med Chem, 1992):
# pIC50: −log10 of the molar value.
# How the values were obtained:
# [1] = tested on: unidentified influenza virus; assay: The compound was evaluated for the inhibition of influenza virus (X-31); assay type: functional, organism-based
# [2] = tested on: unidentified influenza virus; assay: Potency to inhibit influenza virus (X-31) relative to alpha-C-allyl sialic acid; assay type: functional
Compound,pIC50 [1],Relative potency [2]
C=CC[C@@]1(C(=O)O)C[C@H](O)[C@@H](NC(C)=O)[C@H](C(O)C(O)CO)O1 (stereo partly specified),2.00,1
C=CC[C@]1(C(=O)O)C[C@H](O)[C@@H](NC(C)=O)[C@H](C(O)C(O)CO)O1 (stereo partly specified),< 1.30,<0.02
CO[C@]1(C(=O)O)C[C@H](O)[C@@H](NC(C)=O)[C@H]([C@@H](O)[C@H](O)CO)O1,2.40,2.5
